In patent publication EP4782453A1 (Beyang Therapeutics Co., Ltd., priority 2023, dated 2025):
pEC50, pIC50: −log10 of the molar value.

Assays:
Format in all cases: cell-based
[1] = test system: MV-4-11 (carrying MLL-AF4); test: Inhibition of proliferation of human tumor cells (Alamar Blue, 7 days), MV-4-11; details: Homo sapiens, MV4-11, 168 h, MV-4-11 cells (carrying MLL-AF4), method calls the value GI50
In short: (§1)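 GI50 values reflect growth inhibition over 7 days, read by Alamar Blue. Seeding density was 4,000 cells/well except KG-1a (3,000 cells/well); each line grew in its own FBS-containing medium at 37°C.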

KG-1a (wild-type MLL) = test: Inhibition of proliferation of human tumor cells (Alamar Blue, 7 days), KG-1a control cell line; details: 168 h, KG-1a cells (wild-type MLL, control cell line), method calls the value GI50
In short: as §1

[2] = test system: MOLM-13 (carrying MLL-AF9); test: Inhibition of proliferation of human tumor cells (Alamar Blue, 7 days), MOLM-13; details: Homo sapiens, MOLM-13 cells (carrying MLL-AF9), method calls the value GI50
In short: as §1

MEIS1 gene expression [3] = test: Inhibition of MEIS1 gene expression in human tumor cells (qRT-PCR), MOLM-13; details: MOLM-13 (carrying MLL-AF9), 48 hours of incubation, relative MEIS1 gene expression vs GAPDH
From the text: (§2) Experimental Example 3: Evaluation of Inhibitory Activity of Compounds Against MEISI Gene Expression in Human Tumor Cells
(§3) The effect of test samples on MEIS1 gene expression in vitro cultured human leukemia cells MV-4-11 (carrying MLL-AF4), MOLM-13 (carrying MLL-AF9), and OCI-AML3 (carrying NPM1c) was studied.
(§4) • Human acute lymphoblastic leukemia cells MV-4-11, purchased from American Type Culture Collection, Catalog Number: CRL-9591; • Human acute myeloid leukemia cells MOLM-13, purchased from COBIOER BIOSCIENCES CO., LTD, Catalog Number: CBP60678; • Human acute myeloid leukemia cells OCI-AML3, purchased from COBIOER BIOSCIENCES CO., LTD, Catalog Number: CBP60817; • MEIS1 Primer/Probe, purchased from IDT, Catalog Number: 40831613; and • GAPDH Primer/Probe, purchased from IDT, Catalog Number: 22214836.
(§5) MV-4-11 cells were cultured in an IMDM medium containing 10% fetal bovine serum, or MOLM-13 and OCI-AML3 cells were cultured in an RPMI-1640 medium containing 20% fetal bovine serum, each supplemented with 100 U·mL^-1 penicillin and 100 µg·mL^-1 streptomycin. These cells were cultured at 37°C with 5% CO2. The suspensions of individual cell lines were prepared in their respective media and seeded into 48-well plates at a density of 100,000 cells/well. On the day of the experiment, a compound stock solution was diluted in a 6-fold gradient using DMSO. Each gradient-diluted stock solution was then further diluted 250-fold with a complete medium to prepare a series of working solutions at different concentrations. Next, 250 µL of working solution (containing the complete medium with a 2-fold serial concentration of the test compound or a positive control compound, or containing a control complete medium) was added to each well. After 48 hours of incubation, cells from the 48-well plate were collected into 1 mL centrifuge tubes, centrifuged at 1000 rpm for 5 minutes, and the complete medium was removed. Cells were washed twice with 1 mL PBS and centrifuged to remove PBS. Total RNA was extracted using the RNeasy Mini Kit (250) (QIAGEN, 74106). The threshold cycle (Ct) value for gene expression was determined using the HiScript II U+ One Step qRT-PCR Probe Kit (Vazyme) (Vazyme, Q223-01), with 3 replicates per sample. The prepared reaction mixture was placed in an ABI 7500 real-time PCR instrument, and the reaction proceeded following the procedures below. [formula]
(§6) Next, for the relative MEIS1 gene expression, the concentration (EC50) that inhibits 50% of relative MEIS1 gene expression was calculated using GraphPad Prism 8 software.

MEIS1 gene expression [4] = test: Inhibition of MEIS1 gene expression in human tumor cells (qRT-PCR), OCI-AML3; details: OCI-AML-3, OCI-AML3 (carrying NPM1c), 48 hours of incubation, relative MEIS1 gene expression vs GAPDH
From the text: as §2, §3, §4, §5, §6

| SMILES | pIC50 [1] | pIC50 (KG-1a (wild-type MLL)) | pIC50 ([2]; MOLM-13, 168 h) | pIC50 ([2]; 168 h) | pEC50 (MEIS1 gene expression [3]) | pEC50 (MEIS1 gene expression [4]) |
| --- | --- | --- | --- | --- | --- | --- |
| CCN(C(=O)c1cc(F)ccc1-c1cc(C2(F)CN(C(=O)C3NC4CCC3CC4)C2)cn2c(C)ncc12)C(C)C [Example 75, N-ethyl-5-fluoro-2-(6-{3-fluoro-1-[(1R,3S,4S)-2-azabicyclo[2.2.2]octan-3-carbonyl]azacyclobutan-3-yl}-3-methylimidazo[1,5-a]pyridin-8-yl)-N-(isopropyl) benzamide] | 7.60 | 4.70 | 7.11 |  |  |  |
| CCN(C(=O)c1cc(F)ccc1-c1cc(C2CCN(Cc3ccc(-c4cc(OC)c(OC)nn4)cc3)C2)cn2c(C)ncc12)C(C)C (stereo not drawn) [Example 83] | 8.26 | 5.13 |  | 7.48 |  |  |
| CCS(=O)(=O)N[C@H]1CC[C@H](CN2CC(c3cc(-c4ccc(F)cc4C(=O)N4CCOC[C@H]4C)c4cnc(C)n4c3)C2)CC1 [Example 134, N-[(1r,4r)-4-{[3-(8-{4-fluoro-2-[(3R)-3-methylmorpholin-4-carbonyl]phenyl}-3-methylimidazo[1,5-a]pyridin-6-yl)azacyclobutan-1-yl]methyl}cyclohexyl]ethan-1-sulfonamide] | 7.59 | 4.70 |  | 7.68 | 7.28 |  |
| CCN(C(=O)c1cc(F)ccc1-c1cc(C2CN(C[C@H]3CC[C@H](NS(=O)(=O)CC)CC3)C2)cn2c(C)nc(F)c12)C(C)C [Example 137] | 8.33 |  |  | 8.00 | 8.05 |  |
| CCS(=O)(=O)N[C@H]1CC[C@H](CN2CC(c3cc(-c4ccc(F)cc4C(=O)N(CC(F)F)C(C)C)c4cnc(C)n4c3)C2)CC1 [Example 138] | 8.52 | 4.70 |  | 8.12 | 8.10 |  |
| COCCN(C)CCCC(C(C)C)N1CC(c2cc(-c3ccc(F)cc3C(=O)N(CC(F)F)C(C)C)c3c(F)nc(C)n3c2)C1 (stereo not drawn) [Example 142, N-(2,2-difluoroethyl)-5-fluoro-2-[1-fluoro-6-(1-{6-[(2-methoxyethyl)(methyl)amino]-2-methylhexan-3-yl}azacyclobutan-3-yl)-3-methylimidazo[1,5-a]pyridin-8-yl]-N-(isopropyl)benzamide] | 8.66 | 5.44 |  | 8.00 | 8.64 |  |
| COCCN(C)CCCC(C(C)C)N1CC(c2cc(-c3ccc(F)cc3C(=O)N3CCOCC3C)c3cnn(C)c3c2)C1 (stereo not drawn) [Example 185] | 7.59 | 4.70 |  | 7.15 |  |  |
| COCCN(C)CCC[C@H](C(C)C)N1CC(c2cc(-c3ccc(F)cc3C(=O)N3[C@H](C)COC[C@H]3C)c3cnn(C)c3c2)C1 [Example 186-2, [(4R)-4-[3-(4-{2-[(3R,5R)-3,5-dimethylmorpholin-4-carbonyl]-4-fluorophenyl}-1-methyl-1H-indazol-6-yl)azacyclobutan-1-yl]-5-methylhexyl](2-methoxyethyl)methylamine] | 8.37 | 4.70 |  | 7.55 |  |  |
| CCS(=O)(=O)N[C@H]1CC[C@H](CN2CC(c3cc(-c4ccc(F)cc4C(=O)N4[C@H](C)COC[C@H]4C)c4c(F)nc(C)n4c3)C2)CC1 [Example 197, N-[(1r,4r)-4-{[3-(8-{2-[(3R,5R)-3,5-dimethylmorpholin-4-carbonyl]-4-fluorophenyl}-1-fluoro-3-methylimidazo[1,5-a]pyridin-6-yl)azacyclobutan-1-yl]methyl}cyclohexyl]ethan-1-sulfonamide] | 8.40 | 4.70 | 7.99 |  |  |  |
| CO[C@@H]1CCN(CCC[C@H](C(C)C)N2CC(c3cc(-c4ccc(F)cc4C(=O)N4CCOC[C@H]4C)c4c(F)nc(C)n4c3)C2)C1 [Example 202] | 8.74 | 4.70 |  | 7.96 |  |  |
| CC(=O)N1CCC(CN2CC(c3cc(-c4ccc(F)cc4C(=O)N4[C@H](C)COC[C@H]4C)c4c(F)nc(C)n4c3)C2)CC1 [Example 205] | 8.13 | 4.70 |  | 7.72 |  |  |
| Cc1nc(F)c2c(-c3ccc(F)cc3C(=O)N3[C@H](C)COC[C@H]3C)cc(C3CN(CC4CCOCC4)C3)cn12 [Example 208] | 8.18 | 4.70 |  | 8.02 |  |  |
| CCNC(=O)N1CCC(CN2CC(c3cc(-c4ccc(F)cc4C(=O)N4CCOC[C@H]4C)c4c(F)nc(C)n4c3)C2)CC1 [Example 261] | 8.02 | 4.70 |  | 7.64 |  |  |
| CNC(=O)N1CCC([C@H](C)N2CC(c3cc(-c4ccc(F)cc4C(=O)N4CCOC[C@H]4C)c4c(F)nc(C)n4c3)C2)CC1 [Example 264-2] | 8.33 | 4.70 |  | 7.92 |  |  |
| CC[C@@H](C1CCN(C(C)=O)CC1)N1CC(c2cc(-c3ccc(F)cc3C(=O)N3CCOC[C@H]3C)c3c(F)nc(C)n3c2)C1 [Example 280-1, 1-{4-[(1S)-1-[3-(1-fluoro-8-{4-fluoro-2-[(3R)-3-methylmorpholin-4-carbonyl]phenyl}-3-methylimidazo[1,5-a]pyridin-6-yl)azacyclobutan-1-yl]propyl]piperidin-1-yl}ethan-1-one] | 8.16 |  |  | 7.57 | 7.64 | 7.47 |
| CCN(C(=O)c1cc(F)ccc1-c1cc(C2CN([C@@H](C)C3CCN(C(=O)CO)CC3)C2)cn2c(C)nc(F)c12)C(C)C [Example 284-2] | 8.82 |  |  | 8.17 | 8.23 | 8.24 |
| Cc1nc(F)c2c(-c3ccc(F)cc3C(=O)N3CCOCC3C)cc(C3CN(C(CCCN4CCCC(O)C4)C(C)C)C3)cn12 (stereo not drawn) [Example 292] | 8.62 | 4.70 |  | 7.89 |  |  |
| Cc1nc(F)c2c(-c3ccc(F)cc3C(=O)N3CCOC[C@H]3C)cc(C3CN([C@H](CO[C@@H]4CCCN(C)C4)C(C)C)C3)cn12 [Example 297-1, (3R)-4-[5-fluoro-2-(1-fluoro-3-methyl-6-{1-[(2S)-3-methyl-1-{[(3R)-1-methylpiperidin-3-yl]oxy}butan-2-yl]azacyclobutan-3-yl}imidazo[1,5-a]pyridin-8yl)benzoyl]-3-methylmorpholine] | 7.92 |  |  | 7.44 | 7.92 | 7.47 |
| CO[C@@H]1CCCN(CCC[C@H](C(C)C)N2CC(c3cc(-c4ccc(F)cc4C(=O)N4CCOC[C@H]4C)c4c(F)nc(C)n4c3)C2)C1 [Example 305] | 8.47 | 4.70 |  | 7.92 |  |  |
| CO[C@H]1CCCN(CCC[C@H](C(C)C)N2CC(c3cc(-c4ccc(F)cc4C(=O)N4CCOC[C@H]4C)c4c(F)nc(C)n4c3)C2)C1 [Example 306] | 8.55 | 4.70 |  | 8.11 |  |  |
| Cc1nc(F)c2c(-c3ccc(F)cc3C(=O)N3CCOC[C@H]3C)cc(C3CN([C@H](CCCN4CCN(C5CC5)CC4)C(C)C)C3)cn12 [Example 350] |  | 4.92 |  | 8.34 | 8.40 |  |
| Cc1nc(F)c2c(-c3ccc(F)cc3C(=O)N3CCOC[C@H]3C)cc(C3CN(C(CC[C@@H]4COCCN4)C(C)C)C3)cn12 (stereo partly drawn) [Example 371, (3R)-4-{5-fluoro-2-[1-fluoro-3-methyl-6-(1-{4-methyl-1-[(3R)-morpholin-3-yl]pentan-3-yl}azacyclobutan-3-yl)imidazo[1,5-a]pyridin-8-yl]benzoyl}-3-methylmorpholine] |  | < 4.70 |  | 8.28 | 8.96 |  |
